In publication PMC7714403 (JCI Insight, 2020):
Like-named read-outs stand apart in the source and are kept apart here.

Tests used:
Assay in all cases: KiNativ, MOLM13 live cells
Assay type in all cases: cell-based
ARAF = ARAF (Homo sapiens, UniProt P10398); conditions: MOLM-13; 100 nM, 2 hours; Lys2; read-out: Inhibition vs DMSO
Procedure: (§1) Samples were analyzed by KiNativ in situ kinase profiling by ActivX Biosciences.

CDK9 = CDK9 (Homo sapiens, UniProt P50750); conditions: MOLM-13; 100 nM, 2 hours; ATP Loop; read-out: Inhibition vs DMSO
Procedure: as §1

CaMK2g = CaMK2g (Homo sapiens, UniProt Q13555); conditions: MOLM-13; 100 nM, 2 hours; Lys1; read-out: Inhibition vs DMSO
Procedure: as §1

DNAPK = DNAPK (Homo sapiens, UniProt P78527); conditions: MOLM-13, 2 h, 100 nM, ATP, read-out: Inhibition vs DMSO
Sequence of DNAPK (P78527 2-4128 limits assumed): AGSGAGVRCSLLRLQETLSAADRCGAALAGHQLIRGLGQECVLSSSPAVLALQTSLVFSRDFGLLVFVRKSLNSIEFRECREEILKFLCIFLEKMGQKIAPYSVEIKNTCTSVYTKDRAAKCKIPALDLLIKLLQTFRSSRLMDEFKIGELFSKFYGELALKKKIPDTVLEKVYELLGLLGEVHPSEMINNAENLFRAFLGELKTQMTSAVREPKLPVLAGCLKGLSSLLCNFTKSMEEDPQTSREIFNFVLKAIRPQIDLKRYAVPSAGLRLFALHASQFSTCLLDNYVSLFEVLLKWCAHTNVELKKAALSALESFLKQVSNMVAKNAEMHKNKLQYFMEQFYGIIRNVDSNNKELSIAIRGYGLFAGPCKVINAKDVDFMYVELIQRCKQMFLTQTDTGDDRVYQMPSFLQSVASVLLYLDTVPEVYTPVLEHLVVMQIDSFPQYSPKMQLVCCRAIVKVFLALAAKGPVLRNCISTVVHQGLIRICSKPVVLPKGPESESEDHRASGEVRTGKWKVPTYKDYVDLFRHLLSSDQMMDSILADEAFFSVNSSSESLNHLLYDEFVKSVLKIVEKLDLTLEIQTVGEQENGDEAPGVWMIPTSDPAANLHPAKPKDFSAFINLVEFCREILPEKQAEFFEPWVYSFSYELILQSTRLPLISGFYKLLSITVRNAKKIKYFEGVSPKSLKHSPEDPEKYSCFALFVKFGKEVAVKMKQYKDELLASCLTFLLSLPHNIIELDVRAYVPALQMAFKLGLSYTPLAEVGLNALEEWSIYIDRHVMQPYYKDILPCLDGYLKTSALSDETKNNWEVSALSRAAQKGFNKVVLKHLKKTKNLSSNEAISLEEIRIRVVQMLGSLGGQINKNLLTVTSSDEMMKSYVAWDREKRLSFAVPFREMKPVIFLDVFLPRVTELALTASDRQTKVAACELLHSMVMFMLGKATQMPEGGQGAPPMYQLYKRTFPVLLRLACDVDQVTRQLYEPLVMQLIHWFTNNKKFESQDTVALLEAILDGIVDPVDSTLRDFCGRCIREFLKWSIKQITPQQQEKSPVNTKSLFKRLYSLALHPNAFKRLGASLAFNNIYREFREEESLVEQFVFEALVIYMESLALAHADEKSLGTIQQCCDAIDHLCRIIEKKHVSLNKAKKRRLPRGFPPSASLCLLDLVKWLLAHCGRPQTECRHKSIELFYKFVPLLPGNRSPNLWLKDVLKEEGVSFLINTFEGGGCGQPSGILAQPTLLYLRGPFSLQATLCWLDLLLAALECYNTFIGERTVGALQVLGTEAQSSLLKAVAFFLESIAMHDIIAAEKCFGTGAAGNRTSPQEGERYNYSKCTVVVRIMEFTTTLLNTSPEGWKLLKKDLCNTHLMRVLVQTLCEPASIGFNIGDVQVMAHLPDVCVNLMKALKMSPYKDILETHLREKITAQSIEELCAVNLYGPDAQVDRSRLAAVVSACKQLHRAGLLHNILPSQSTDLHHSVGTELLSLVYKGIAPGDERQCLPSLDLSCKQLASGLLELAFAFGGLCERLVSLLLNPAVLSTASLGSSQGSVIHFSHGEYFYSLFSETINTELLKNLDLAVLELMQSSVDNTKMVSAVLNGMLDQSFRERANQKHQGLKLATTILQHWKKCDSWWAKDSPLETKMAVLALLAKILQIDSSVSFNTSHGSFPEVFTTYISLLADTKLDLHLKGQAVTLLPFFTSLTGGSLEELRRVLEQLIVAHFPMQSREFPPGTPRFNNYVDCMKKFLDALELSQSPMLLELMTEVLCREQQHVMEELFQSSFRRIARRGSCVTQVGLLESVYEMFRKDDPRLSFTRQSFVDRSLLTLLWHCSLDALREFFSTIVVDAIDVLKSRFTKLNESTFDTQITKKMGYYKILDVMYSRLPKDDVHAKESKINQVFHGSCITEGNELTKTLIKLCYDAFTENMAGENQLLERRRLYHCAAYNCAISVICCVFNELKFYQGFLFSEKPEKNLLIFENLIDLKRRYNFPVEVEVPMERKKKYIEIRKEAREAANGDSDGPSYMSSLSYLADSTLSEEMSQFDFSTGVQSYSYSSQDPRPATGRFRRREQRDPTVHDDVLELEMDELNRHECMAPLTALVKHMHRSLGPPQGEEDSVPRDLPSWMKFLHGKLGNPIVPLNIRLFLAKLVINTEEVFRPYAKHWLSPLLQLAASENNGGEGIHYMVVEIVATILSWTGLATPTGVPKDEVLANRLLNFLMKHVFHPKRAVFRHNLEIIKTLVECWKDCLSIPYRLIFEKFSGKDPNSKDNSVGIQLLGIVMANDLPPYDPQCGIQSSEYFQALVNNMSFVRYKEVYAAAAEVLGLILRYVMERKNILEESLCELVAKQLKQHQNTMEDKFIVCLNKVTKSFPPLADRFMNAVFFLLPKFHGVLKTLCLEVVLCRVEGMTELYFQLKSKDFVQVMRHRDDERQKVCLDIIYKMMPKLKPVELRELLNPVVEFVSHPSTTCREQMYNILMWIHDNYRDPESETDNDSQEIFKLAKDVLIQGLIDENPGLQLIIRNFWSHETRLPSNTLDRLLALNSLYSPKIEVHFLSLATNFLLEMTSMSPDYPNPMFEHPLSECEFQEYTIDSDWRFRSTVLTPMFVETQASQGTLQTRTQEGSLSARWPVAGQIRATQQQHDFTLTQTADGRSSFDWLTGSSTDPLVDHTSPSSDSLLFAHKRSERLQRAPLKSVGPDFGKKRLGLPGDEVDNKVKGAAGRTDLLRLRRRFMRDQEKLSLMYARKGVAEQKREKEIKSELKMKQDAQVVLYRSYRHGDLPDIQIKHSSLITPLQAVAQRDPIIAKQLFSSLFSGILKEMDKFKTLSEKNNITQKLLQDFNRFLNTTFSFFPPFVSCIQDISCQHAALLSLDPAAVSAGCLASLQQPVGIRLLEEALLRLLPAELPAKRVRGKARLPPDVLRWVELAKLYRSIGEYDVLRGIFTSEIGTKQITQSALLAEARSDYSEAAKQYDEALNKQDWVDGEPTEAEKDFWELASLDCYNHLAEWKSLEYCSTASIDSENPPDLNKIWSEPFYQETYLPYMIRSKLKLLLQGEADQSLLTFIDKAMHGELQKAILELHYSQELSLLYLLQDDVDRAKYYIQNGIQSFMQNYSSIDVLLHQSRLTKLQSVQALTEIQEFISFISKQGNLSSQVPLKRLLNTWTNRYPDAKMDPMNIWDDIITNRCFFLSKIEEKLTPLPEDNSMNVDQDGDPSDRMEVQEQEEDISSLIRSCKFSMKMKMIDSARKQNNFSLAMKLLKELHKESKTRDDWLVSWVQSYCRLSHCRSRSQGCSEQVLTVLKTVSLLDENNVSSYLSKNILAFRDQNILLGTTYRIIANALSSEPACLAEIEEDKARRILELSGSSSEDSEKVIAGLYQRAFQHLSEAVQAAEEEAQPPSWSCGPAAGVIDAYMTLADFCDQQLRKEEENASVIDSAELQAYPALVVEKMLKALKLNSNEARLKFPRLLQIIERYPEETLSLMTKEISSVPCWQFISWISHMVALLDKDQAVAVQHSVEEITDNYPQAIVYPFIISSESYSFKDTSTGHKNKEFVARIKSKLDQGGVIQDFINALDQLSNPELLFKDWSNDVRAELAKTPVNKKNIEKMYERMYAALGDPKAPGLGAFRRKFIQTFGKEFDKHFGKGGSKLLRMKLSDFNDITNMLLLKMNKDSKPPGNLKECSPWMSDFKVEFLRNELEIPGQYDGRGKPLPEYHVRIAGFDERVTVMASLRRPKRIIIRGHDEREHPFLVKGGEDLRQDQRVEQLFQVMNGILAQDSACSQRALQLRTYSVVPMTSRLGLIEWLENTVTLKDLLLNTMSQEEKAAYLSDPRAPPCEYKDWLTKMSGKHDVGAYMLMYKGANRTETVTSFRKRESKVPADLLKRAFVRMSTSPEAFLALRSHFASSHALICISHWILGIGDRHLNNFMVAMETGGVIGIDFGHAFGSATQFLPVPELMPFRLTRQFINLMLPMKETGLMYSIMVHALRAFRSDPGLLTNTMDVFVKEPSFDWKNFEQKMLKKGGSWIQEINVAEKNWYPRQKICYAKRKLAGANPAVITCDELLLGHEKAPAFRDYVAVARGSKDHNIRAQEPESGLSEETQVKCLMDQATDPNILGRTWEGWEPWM
Procedure: as §1

FAM20B = FAM20B (Homo sapiens, UniProt O75063); conditions: MOLM-13; 100 nM, 2 hours; ATP; read-out: Inhibition vs DMSO
Procedure: as §1

IKKe = IKKe (Homo sapiens, UniProt Q14164); conditions: MOLM-13; 100 nM, 2 hours; Lys1; read-out: Inhibition vs DMSO
Procedure: as §1

MAP2K6 = target: T1, MAP2K6 (Homo sapiens, UniProt P52564); conditions: MOLM-13, 2 h, 100 nM
T1 sequence (P52564 1-334): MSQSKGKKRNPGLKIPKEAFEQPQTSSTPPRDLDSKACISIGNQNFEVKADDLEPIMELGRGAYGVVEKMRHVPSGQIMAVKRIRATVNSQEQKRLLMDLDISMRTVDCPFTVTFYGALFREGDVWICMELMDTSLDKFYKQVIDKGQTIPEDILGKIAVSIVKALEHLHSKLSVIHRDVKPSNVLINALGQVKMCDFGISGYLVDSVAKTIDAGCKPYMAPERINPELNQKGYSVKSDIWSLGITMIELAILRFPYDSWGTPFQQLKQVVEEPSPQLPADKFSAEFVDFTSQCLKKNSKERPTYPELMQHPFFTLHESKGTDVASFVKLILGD
Procedure: as §1

MAP4K5 = MAP4K5 (Homo sapiens, UniProt Q9Y4K4); conditions: MOLM-13, 2 h, 100 nM
Sequence of MAP4K5 (Q9Y4K4 whole entry): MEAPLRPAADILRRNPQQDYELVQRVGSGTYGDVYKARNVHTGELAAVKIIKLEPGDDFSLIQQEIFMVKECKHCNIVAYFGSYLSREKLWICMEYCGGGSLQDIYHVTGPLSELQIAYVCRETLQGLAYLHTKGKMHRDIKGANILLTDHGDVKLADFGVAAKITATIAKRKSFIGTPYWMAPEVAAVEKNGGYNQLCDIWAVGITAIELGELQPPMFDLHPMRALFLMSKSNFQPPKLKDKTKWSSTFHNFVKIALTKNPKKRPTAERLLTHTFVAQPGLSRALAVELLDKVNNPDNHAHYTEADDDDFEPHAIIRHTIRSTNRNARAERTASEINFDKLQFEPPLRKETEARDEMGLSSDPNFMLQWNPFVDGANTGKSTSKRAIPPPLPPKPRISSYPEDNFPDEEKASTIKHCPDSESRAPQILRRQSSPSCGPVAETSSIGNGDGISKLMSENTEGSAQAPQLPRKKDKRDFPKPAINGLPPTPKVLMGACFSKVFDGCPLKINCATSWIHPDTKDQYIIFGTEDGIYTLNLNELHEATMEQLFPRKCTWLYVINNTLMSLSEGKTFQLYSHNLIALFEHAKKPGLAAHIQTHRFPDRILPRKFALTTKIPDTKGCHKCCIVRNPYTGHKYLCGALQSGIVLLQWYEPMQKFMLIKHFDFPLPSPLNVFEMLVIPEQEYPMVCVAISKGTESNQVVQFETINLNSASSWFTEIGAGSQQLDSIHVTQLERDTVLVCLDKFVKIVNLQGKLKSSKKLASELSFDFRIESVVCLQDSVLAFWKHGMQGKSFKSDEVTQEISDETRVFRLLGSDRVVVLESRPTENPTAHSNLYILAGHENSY
Procedure: as §1

MASTL = target: T2, MASTL (Homo sapiens, UniProt Q96GX5); conditions: 100 nM, 2 hours
T2 sequence (Q96GX5 1-879): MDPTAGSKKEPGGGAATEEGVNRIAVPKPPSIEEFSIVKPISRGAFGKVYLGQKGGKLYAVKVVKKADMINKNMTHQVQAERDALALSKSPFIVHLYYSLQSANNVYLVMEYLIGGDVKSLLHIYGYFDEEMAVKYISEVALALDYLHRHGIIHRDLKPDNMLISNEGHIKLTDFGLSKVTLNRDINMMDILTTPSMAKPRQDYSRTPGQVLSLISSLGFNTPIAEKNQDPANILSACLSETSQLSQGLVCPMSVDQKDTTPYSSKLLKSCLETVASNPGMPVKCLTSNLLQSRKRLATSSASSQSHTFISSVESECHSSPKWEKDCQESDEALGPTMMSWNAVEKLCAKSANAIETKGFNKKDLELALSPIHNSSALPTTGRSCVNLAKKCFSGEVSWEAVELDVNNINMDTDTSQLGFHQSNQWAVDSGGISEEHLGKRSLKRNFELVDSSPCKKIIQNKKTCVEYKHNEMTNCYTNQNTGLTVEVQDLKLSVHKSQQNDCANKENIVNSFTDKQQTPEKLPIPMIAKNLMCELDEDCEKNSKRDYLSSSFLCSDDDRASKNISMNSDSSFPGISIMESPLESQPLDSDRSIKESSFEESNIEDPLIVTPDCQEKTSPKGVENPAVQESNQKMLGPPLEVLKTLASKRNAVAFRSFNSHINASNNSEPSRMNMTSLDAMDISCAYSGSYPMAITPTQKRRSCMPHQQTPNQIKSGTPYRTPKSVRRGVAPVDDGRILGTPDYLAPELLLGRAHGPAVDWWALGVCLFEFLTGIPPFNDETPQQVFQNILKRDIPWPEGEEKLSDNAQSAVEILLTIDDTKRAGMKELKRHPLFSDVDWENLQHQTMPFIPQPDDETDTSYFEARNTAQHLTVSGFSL
Procedure: as §1

NEK4 = NEK4 (Homo sapiens, UniProt P51957); conditions: MOLM-13; 100 nM, 2 hours; Lys2; read-out: Inhibition vs DMSO
Procedure: as §1

PIP4K2C = target: T3, PIP4K2C (Homo sapiens, UniProt Q8TBX8); conditions: MOLM-13, 2 h, 100 nM, ATP, read-out: Inhibition vs DMSO
T3 sequence (Q8TBX8 1-421): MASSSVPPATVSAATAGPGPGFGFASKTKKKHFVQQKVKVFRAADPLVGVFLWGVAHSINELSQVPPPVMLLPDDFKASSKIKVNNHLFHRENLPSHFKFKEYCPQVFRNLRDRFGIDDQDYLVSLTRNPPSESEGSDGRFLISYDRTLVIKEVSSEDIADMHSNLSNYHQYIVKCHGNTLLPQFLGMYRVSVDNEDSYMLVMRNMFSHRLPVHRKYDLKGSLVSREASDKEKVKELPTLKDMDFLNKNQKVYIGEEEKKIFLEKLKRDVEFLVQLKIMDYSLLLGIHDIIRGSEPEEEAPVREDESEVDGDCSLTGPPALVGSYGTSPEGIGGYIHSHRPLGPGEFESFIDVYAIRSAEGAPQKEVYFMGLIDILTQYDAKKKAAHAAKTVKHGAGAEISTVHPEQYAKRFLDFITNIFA
Procedure: as §1

RSK1 domain2 = target: T4, RSK1 domain2 (Homo sapiens, UniProt Q15418); conditions: MOLM-13; 100 nM, 2 hours; Lys2; read-out: Inhibition vs DMSO
T4 construct: RSK1 domain2
Procedure: as §1

SLK = SLK (Homo sapiens, UniProt Q9H2G2); conditions: MOLM-13; 100 nM, 2 hours; Lys2; read-out: Inhibition vs DMSO
Procedure: as §1

[1] = Lys1, read-out: Inhibition vs DMSO
[2] = Lys2, read-out: Inhibition vs DMSO

CN1CCN(Cc2ccc(Nc3ncc(Cl)c(Nc4ccccc4S(=O)(=O)N(C)C)n3)cc2)CC1 [TP-0903]
inhibition at 0.1 µM (ARAF): -2.9%
inhibition at 0.1 µM (CDK9): -34.4%
inhibition at 0.1 µM (CaMK2g): 25.8%
inhibition at 0.1 µM (DNAPK; EHPFLVKGGEDLR): 11.7%
inhibition at 0.1 µM (DNAPK; KGGSWIQEINVAEK): 8.3%
inhibition at 0.1 µM (FAM20B): -5%
inhibition at 0.1 µM (IKKe): 19.3%
inhibition at 0.1 µM (MAP2K6; [1]): -2.4%
inhibition at 0.1 µM (MAP2K6; [2]): -11.9%
inhibition at 0.1 µM (MAP4K5; [1]): 54.8%
inhibition at 0.1 µM (MAP4K5; [2]): 42.9%
Inhibition vs DMSO (MASTL; ATP Loop): 10.4%
Inhibition vs DMSO (MASTL; Lys1): -9.8%
inhibition at 0.1 µM (NEK4): -23.8%
inhibition at 0.1 µM (PIP4K2C; TLVIKEVSSEDIADMHSNLSNYHQYIVK): -26%
inhibition at 0.1 µM (PIP4K2C; VKELPTLKDMDFLNK): -26.5%
inhibition at 0.1 µM (RSK1 domain2): -19.8%
inhibition at 0.1 µM (SLK): 72.2%
